Laboratory results published in US8097650B2, “Method of treating a condition associated with phosphorylation of TASK-1” (The Trustees of Columbia University In The City of New York, priority 2005, dated 2012).

Legend:
TASK-1 = assay: C-PAF-sensitive TASK-1 current in mouse ventricular myocytes dialyzed with PKCε peptides; type: cell-based; settings: modified Tyrode's (high K+), scrambled peptide in pipette
Experimental: Mouse ventricular myocytes were isolated using a retrograde coronary perfusion method previously published (Kuznetsov V et al. (1995) Circ Res 76: 40-52). All the experiments were carried out according to the guidelines issued by the IACUC of Columbia University. Adult mice 2 or 3 months old, were anaesthetized with a xylazine and ketamine mix and heparinized, the heart was quickly removed and the ascending aorta was connected to the outlet of a Langendorff column and perfused with 20-25 ml of a buffer solution (37° C.) containing (mM):NaCl, 112; KCl, 5.4; NaHCO3, 4.2; MgCl2, 1.6; HEPES, 20; glucose, 5.4; NaH2PO4, 1.7; taurine, 10; L-glutamine, 4.1; MEM amino acids solution, 2%; MEM vitamin solution, 1%; adjusted to pH 7.4, and equilibrated with 100% O2. Next, the heart was perfused with an enzyme solution containing collagenase (0.2 mg/ml; Worthington Type II) and trypsin (0.04 mg/ml) at 35° C. for 10-12 min. After this perfusion, the atria were removed and the ventricles minced and transferred to a 50 ml flask with an enzyme solution containing collagenase (0.45 mg/ml), trypsin (0.08 mg/ml), Ca^2+ (0.75 mM) and bovine serum albumin (BSA; 4.8 mg/ml). The flask was shaken vigorously for 5-10 min at 32° C. before the supernatant was removed and the cells were collected by centrifugation, this operation was repeated two or three times and additional disaggregated cells were collected. After centrifugation, the myocytes were resuspended in the buffer solution containing Ca^2+ (0.75 mM) and BSA and stored at room temperature until use. Rod-shaped, Ca^2+-tolerant myocytes, obtained with this procedure, were used within 6 h of dissociation. Measurements were performed only on quiescent myocytes with clear striations
The myocyte suspension or the coverslip with CHO cells was placed into a perfusion chamber, mounted on the stage of an inverted microscope. Unless otherwise indicated, CHO cells were superfused at room temperature with standard external Tyrode's buffer, containing (mM): NaCl, 140; KCl, 5.4; CaCl2, 1; MgCl2, 1; HEPES, 5; glucose, 10; adjusted to pH 7.4. Recordings were begun after the current reached a stable baseline (usually 3 to 4 min after initial cell rupture). In myocytes, TASK-1 current is small and exists in the presence of numerous larger K^+ currents. […] Membrane potential and current were measured in the whole cell configuration using borosilicate glass pipettes with a tip resistance between […] and filled with a pipette solution containing (mM): aspartic acid, 130; KOH, 146; NaCl, 10; CaCl2, 2; EGTA, 5; HEPES, 10; MGATP, 2; pH 7.2. […] Myocytes treated with the peptides were monitored continuously beginning immediately after rupture to detect the occurrence of any arrhythmias during dialysis of the peptide. […]

human TASK-1 S358A = assay: Human TASK-1 S358A mutant current in CHO cells; type: cell-based; settings: Tyrode's pH 8, ramp
Excerpt: FIGS. 24A-24B. Mutations in human TASK-1 remove the sensitivity to C-PAF and PMA when the channel is expressed in CHO cells. Two human TASK-1 (hTASK-1) mutants in which either serine-358 was converted to alanine (S358A) or threonine-383 was converted to alanine (T383A) were generated and separately expressed in CHO cells. The C-PAF-sensitive (24A) and PMA-sensitive currents (24B) were obtained in Tyrode's at pH 8 using a ramp protocol in […] configuration, essentially as described in FIG. 15. […] However, the S358A channel was not inhibited in the presence of C-PAF (24A) and the T383A channel was not inhibited by PMA (24B).

## CCCCCCCCCCCCCCCCOC[C@H](COP(=O)([O-])OCC[N+](C)(C)C)OC(=O)NC [C-PAF, carbamyl-platelet-activating factor]
TASK-1
  reversal potential of C-PAF-sensitive current: −26.1±1.9 mV
Human TASK-1 S358A
  inhibition of S358A channel: not inhibited
